According to patent US4663310A, “Renin inhibitors containing 2-substituted statine” (Merck & Co., Inc., priority 1984, dated 1987):
Starred links: 1 amine or outer side, 2 acyl side, 3 side chain; linkers in the order of their positions; H or OH if unused. Non-standard residues stand in square brackets, D forms with d. Residues, ends and D or L forms follow the SMILES beside them. *: point of attachment. X1 = CC(C)CC(C(=O)[*:2])[C@H](O)[C@H](CC(C)C)N[*:1]; Isobutyryl = CC(C)C(=O)*

Tests used:
[1] = biological target: T1, human kidney renin (Homo sapiens, UniProt P00797); experiment: Inhibition of purified human kidney renin; assay type: biochemical; conditions: dissociation constant of the inhibited enzyme inhibitor complex
T1 construct: human kidney renin purified as described in Bangham; from tissue; host or cells: human kidney
T1 sequence (P00797 67-406): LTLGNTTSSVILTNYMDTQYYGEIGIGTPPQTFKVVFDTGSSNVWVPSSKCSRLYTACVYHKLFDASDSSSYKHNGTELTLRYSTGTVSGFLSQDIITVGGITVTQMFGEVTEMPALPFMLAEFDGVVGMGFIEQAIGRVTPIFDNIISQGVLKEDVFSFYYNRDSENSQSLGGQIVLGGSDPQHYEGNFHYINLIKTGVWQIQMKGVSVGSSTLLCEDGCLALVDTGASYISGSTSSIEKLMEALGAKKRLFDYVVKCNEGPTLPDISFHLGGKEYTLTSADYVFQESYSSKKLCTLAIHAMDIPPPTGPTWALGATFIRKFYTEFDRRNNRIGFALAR
Method: (§1) Assays were carried out in order to determine the inhibitory potency of the peptides of the present invention. One assay measured the inhibition of hog kidney renin, and was in accordance with the procedure described in Rich et al., J. Med. Chem. 23: 27, 1980, except that a pH of 7.3 was used. Another assay measured the inhibition of human kidney renin purified as described in Bangham, D. R., Robertson, I., Robinson, J. I. S., Robinson, C. J., and Tree, M., Clinical Science and Molecular Medicine, 48 (Supp. 2): 136s-159s (1975), and further purified by affinity chromatography on pepstatin-aminohexyl-Sepharase as described in Poe, M., Wu., J. K., Florance, J. R., Radkey, J. A., Bennett, C. D., and Hoogsteen, K., J. Biol. Chem. 258: 2209-2216 (1983). The assay was also in accordance with Poe et al. cited above. Further assays measured human plasma renin and dog plasma renin in accordance with procedures described in Boger et al., Nature, 303: 81-84 (1983).
Results expressed as KI values refer to the dissociation constant of the inhibited enzyme inhibitor complex. This KI value was obatined as described above. Pepstatin was used as an active control.

[2] = biological target: T2, human plasma renin (Homo sapiens, UniProt P00797); experiment: Human plasma renin assay; assay type: biochemical; conditions: read-out: Renin Inhibition Human Plasma I50
T2 construct: Further assays measured human plasma renin and dog plasma renin; from tissue; host or cells: human plasma
T2 sequence (P00797 67-406): T1 sequence (P00797 67-406)
Method: as §1

[3] = biological target: T3, dog plasma renin (Canis lupus familiaris, UniProt Q6DYE7); experiment: Dog plasma renin assay; assay type: biochemical; conditions: for IC50: read-out: Renin Inhibition Dog Plasma I50
T3 construct: Further assays measured human plasma renin and dog plasma renin; from tissue; host or cells: dog plasma
T3 sequence (Q6DYE7 66-403): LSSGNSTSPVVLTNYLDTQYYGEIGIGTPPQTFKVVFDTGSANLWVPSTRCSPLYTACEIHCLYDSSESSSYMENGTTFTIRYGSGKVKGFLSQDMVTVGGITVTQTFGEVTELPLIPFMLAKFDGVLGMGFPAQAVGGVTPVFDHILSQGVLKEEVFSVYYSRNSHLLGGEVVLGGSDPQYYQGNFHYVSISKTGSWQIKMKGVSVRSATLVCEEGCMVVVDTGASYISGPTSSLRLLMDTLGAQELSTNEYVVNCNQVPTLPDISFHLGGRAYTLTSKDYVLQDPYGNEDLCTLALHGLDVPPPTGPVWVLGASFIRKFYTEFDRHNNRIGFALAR
Method: as §1

[4] = test system: hog kidney renin; experiment: Inhibition of hog kidney renin; assay type: biochemical; conditions: pH 7.3; read-out: Renin Inhibition Hog Kidney I50
Method: as §1

[5] = test system: nephrectomized rats; conditions: after the injection of hog renin into nephrectomized rats; Gross et al.; cited from earlier work
[6] = test system: acid proteases; conditions: cited from earlier work

Ki [1] | IC50 [2] | IC50 [3] | Compound | other results
4.4 nM | 65 nM | 6.2 nM | CC(C)CC[C@@H](C(=O)N[C@@H](CC(C)C)C(=O)NCc1ccccc1)[C@H](O)[C@H](Cc1ccccc1)NC(=O)[C@H](Cc1c[nH]cn1)NC(=O)[C@H](Cc1ccccc1)NC(=O)OC(C)(C)C [BOCPheHis(2- -i-Pent)AHPPALeu] | 
9.3 nM | 8.2 nM | 3.5 nM | CC(C)C[C@H](NC(=O)[C@H](CC(C)C)[C@H](O)[C@H](Cc1ccccc1)NC(=O)[C@H](Cc1c[nH]cn1)NC(=O)[C@H](Cc1ccccc1)NC(=O)OC(C)(C)C)C(=O)NCc1ccccc1 [BOCPheHis(2- -i-Bu)AHPPALeu, tert-Butyloxycarbonyl-L-phenylalanyl-L-histidyl-4(S)-amino-3(S)-hydroxy-2(R)-iso-butyl-5-phenylpentanoyl-L-leucyl-benzylamide] | 
 |  |  | CC(C)CC(C(=O)N[C@@H](CC(C)C)C(=O)N[C@@H](Cc1ccccc1)C(N)=O)[C@H](O)[C@H](CC(C)C)NC(=O)[C@H](Cc1ccccc1)NC(=O)[C@H](Cc1ccccc1)NC(=O)[C@@H]1CCCN1C(=O)[C@H](Cc1c[nH]cn1)NC(=O)C(C)C (some centres unmarked) [IBUHisProPhePhe(2- -i-Bu)StaLeuPheNH2] (Isobutyryl-HPFF[X1]LF-NH2) | IC50 [4]: 22 nM
 |  |  | Pepstatin | blood pressure in vivo [5]: reduce blood pressure; inhibition of other acid proteases (selectivity) [6]: inhibition of a variety of other acid proteases in addition to renin
10 nM |  |  | CC(C)C[C@H](NC(=O)[C@H](CC(C)C)[C@H](O)[C@H](CC(C)C)NC(=O)[C@H](Cc1c[nH]cn1)NC(=O)[C@H](Cc1ccccc1)NC(=O)OC(C)(C)C)C(=O)NCc1ccccc1 [BOCPheHis(2- -i-Bu)StaLeu] | Renin Inhibition Dog Plasma % I ([3]; I 10^-6): 0%
